How the values were obtained:
Assay type in all cases: binding
[1] = biological target: T1, Bacillus anthracis DHPS (BaDHPS) (Bacillus anthracis, UniProt Q81VW8)
BSA = BSA (Bos taurus, UniProt P02769); assay: Incubation of probe in 1% BSA monitored by FP; conditions: FP absorbance significantly reduced
[2] = biological target: T1, Bacillus anthracis DHPS (BaDHPS); remark: listed apart in the source

T1 sequence (Q81VW8 1-280): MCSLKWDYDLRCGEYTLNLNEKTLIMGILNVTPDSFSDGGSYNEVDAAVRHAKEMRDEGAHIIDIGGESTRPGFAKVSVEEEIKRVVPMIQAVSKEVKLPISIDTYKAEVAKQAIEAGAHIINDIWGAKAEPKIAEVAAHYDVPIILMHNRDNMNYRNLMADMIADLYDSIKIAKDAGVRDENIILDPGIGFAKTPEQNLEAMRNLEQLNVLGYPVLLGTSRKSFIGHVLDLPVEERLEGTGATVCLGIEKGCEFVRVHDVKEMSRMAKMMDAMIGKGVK
Chain of BSA (P02769 25-607): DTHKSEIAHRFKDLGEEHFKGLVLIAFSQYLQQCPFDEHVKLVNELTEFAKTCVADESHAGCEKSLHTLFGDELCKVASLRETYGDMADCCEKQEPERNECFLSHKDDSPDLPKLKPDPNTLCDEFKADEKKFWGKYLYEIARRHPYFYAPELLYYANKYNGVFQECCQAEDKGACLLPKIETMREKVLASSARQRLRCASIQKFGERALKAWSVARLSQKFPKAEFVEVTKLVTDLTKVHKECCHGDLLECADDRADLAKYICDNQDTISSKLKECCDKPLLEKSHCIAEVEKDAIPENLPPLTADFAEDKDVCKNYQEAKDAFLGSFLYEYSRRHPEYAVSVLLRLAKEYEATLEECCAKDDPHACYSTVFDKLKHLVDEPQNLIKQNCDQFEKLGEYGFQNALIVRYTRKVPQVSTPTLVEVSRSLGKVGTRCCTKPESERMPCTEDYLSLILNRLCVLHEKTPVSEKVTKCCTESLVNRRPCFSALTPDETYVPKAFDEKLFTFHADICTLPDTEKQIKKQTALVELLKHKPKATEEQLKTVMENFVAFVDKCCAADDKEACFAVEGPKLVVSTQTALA

Row | Structure (SMILES) | Competitive displacement of FP probe 4 from BaDHPS [1] | Non-specific protein binding (FP in 1% BSA) (BSA) | Binding site N (ITC) [2] | ΔH (ITC) [2]
1 | Nc1ccc(S(N)(=O)=O)cc1 [SIA, sulfanilamide] | not able to compete off the FP probe 4 |  |  | 
2 | Cc1cc(NS(=O)(=O)c2ccc(N)cc2)no1 [SMX, sulfamethoxazole] | not able to compete off the FP probe 4 |  |  | 
3 | Nc1nc(NCCOCCOCCNC(=O)c2ccc3c(c2)C(=O)OC32c3ccc(O)cc3Oc3cc(O)ccc32)c(N=O)c(=O)[nH]1 [compound 3] |  | non-specific protein binder | 1.59 ± 0.0108 | -5.9 ± 0.059 kcal/mol
4 | CC(C(=O)NCCOCCOCCNC(=O)c1ccc2c(c1)C(=O)OC21c2ccc(O)cc2Oc2cc(O)ccc21)c1nn(C)c2nc(N)[nH]c(=O)c2c1=O (centres unmarked) [compound 4, N-(2-(2-(2-(2-(7-Amino-1-methyl-4,5-dioxo-1,4,5,6-tetrahydropyridazino[3,4-d]pyrimidin-3-yl)propanamido)ethoxy)ethoxy)ethyl)-3',6'-dihydroxy-3-oxo-3H-spiro[isobenzofuran-1,9'-xanthene]-5-carboxamide] |  |  | 1.09 ± 0.0464 | -2.8 ± 0.159 kcal/mol
5 | Nc1nc2ncc(CNc3ccc(C(=O)O)cc3)nc2c(=O)[nH]1 [pteroic acid] | able to compete off the FP probe 4 |  |  | 
